Experimental data taken from patent publication US20220227849A1, “INHIBITOR OF SURFACE PROTEIN (SP-D) / SIRPA / SHP2 PATHWAY FOR USE IN THE PREVENTION AND/OR TREATMENT OF SECONDARY INFECTION” (UNIVERSITÉ DE NANTES, priority 2019, published 2022).

B1: HMGB1: danger-associated molecular pattern protein (Elabscience) administered intra-tracheally (protein, UniProt P63158 1-215, looked up)
High mobility group protein B1: MGKGDPKKPRGKMSSYAFFVQTCREEHKKKHPDASVNFSEFSKKCSERWKTMSAKEKGKFEDMAKADKARYEREMKTYIPPKGETKKKFKDPNAPKRPPSAFFLFCSEYRPKIKGEHPGLSIGDVAKKLGEMWNNTAADDKQPYEKKAAKLKEKYEKDIAAYRAKGKPDAAKKGVVKAEKSKKKKEEEDDEEDEEDEEEEEEEEDEDEEEDDDDE

Test system: alveolar macrophages
Assay: In vivo phagocytic assay of alveolar macrophages 7 days after aseptic lung inflammatory response (intratracheal instillation)
Conditions: wild type mice inoculated intratracheally 7 days prior; TNF-α 2.5 μg, HMGB1 10 μg; 2 hours after YFP-E. coli; FIG. 3f
Experimental: CpG 1668 (10 nM), TNF-α (2.5 μg, Myltenyi Biotec, Paris, France) and HMGB1 (10 μg, Elabscience, Tex., USA) were administrated intra-tracheally under anaesthesia. Mice were kept in a semi-recumbent position for 60 seconds after injection.
Recipient mice were γ-irradiated twice with […] and were reconstituted with 2.5-5×10^6 T cell-depleted bone marrow cells of each relevant donor strain at the indicated ratio. Neomycin (50 mg/ml) was added to the drinking water for the next 4 weeks. Chimeras were used for subsequent experiments 6 to 10 weeks after the reconstitution. Percentage of chimerism was tested during the experiments.
YFP-S. aureus (Strain RN4220 with YFP/erm2 plasmid, kindly gifted by Malone, C. L. et al. 2009 [29]), and YFP-E. coli (strain DH5alpha with p-HG-1 plasmid, kindly gifted by Janssen, W. J. et al 2011 [30]) were grown overnight in Luria broth media with erythromycin 10 μg/mL or 20 μg/mL chloramphenicol, respectively. Fluoresbrite YG carboxylate microspheres (3.64 10^9 beads, […]; Polysciences), YFP-E. coli (OD600=2-3, 75 μL) or YFP-S. aureus (OD600=5-6, 75 μL) were injected i.t. in mice. 2 hours later, the percentages of FITC or YFP^+ macrophages in the lungs were measured by flow cytometry. In vitro phagocytic assay for splenic macrophages

Row | Molecule | phagocytic function of AM after YFP-E. coli pneumonia
1 | TNF-α | displayed impaired phagocytic function
2 | B1 | but not those of HMGB1 treated mice, displayed impaired phagocytic function
